This is an account of results in US20100256173A1, “Method of Treating Cognitive Impairment” (priority 2009, published 2010).

The subject of test [1] is extracellular ACh and dopamine in cerebral cortex and hippocampus. The test is described as follows: extracellular neurotransmitter concentrations in brain. The class given is in vivo. The text has this: (§1) Experiments have shown that ST101 potentiates nicotine-stimulated release of acetylcholine (ACh), increases extracellular ACh concentrations in the cerebral cortex, and increases extracellular concentrations of both ACh and dopamine in the hippocampus.

For test [2], the system named is rodent models of learning and memory. The test is described as follows: rodent models of learning and memory (age-impaired memory, chemical amnesic agents). It is filed as in vivo. As to conditions: after both acute (single-dose) and chronic administration. An excerpt:
The chemical name for ST101 is spiro(imidazo(1,2-a)pyridin-2(3H)-one-3,2′-indan).
(Yamaguchi Y., et al., J. Pharmacol. Exp. Ther. 317:1079-87 (2006); Ito Y., et al., J. Pharmacol. Exp. Ther. 320: 819-27 (2007)).

Test [3] shares this test system. To be noted: cited from earlier work.
The conditions of test [4]: known from other studies; cited from earlier work.
For test [5], the system named is Senescence Accelerated Mouse P8 (SAMP8). As to conditions: cited from earlier work.
In test [6] the test system is nicotine-stimulated release of acetylcholine (ACh). Nature of the test: nicotine-stimulated release of acetylcholine.
Description: as §1

Regarding `O=C1N=C2C=CC=CN2C12Cc1ccccc1C2` [ST101, spiro(imidazo(1,2-a)pyridin-2(3H)-one-3,2′-indan)], the “extracellular ACh concentrations” value in test [1] (cerebral cortex) is listed as “increases”. Further, in test [1] (hippocampus), the “extracellular concentration of ACh” value is “increases” and the “extracellular concentration of dopamine” value is given as “increases”. In test [2], the “pharmacological activity in rodent models of learning and memory relevant to AD” value is “has shown pharmacological activity”. In test [3] (chemical amnesic agent methamphetamine), the “memory deficits induced by methamphetamine” value is “attenuates”. For the same compound, the “memory deficits induced by MK-801” value in test [3] (glutamate receptor antagonist MK-801) is recorded as “attenuates”. Besides, in test [3] (in vivo), the age-impaired memory result was “significantly improves”. For the same compound, in test [3] (muscarinic antagonist scopolamine), the “memory deficits induced by scopolamine” value is listed as “attenuates”. Also, the neuroprotective activity result in test [4] was “has neuroprotective activity”. Besides, the “accumulation of Aβ-like deposits” value in test [5] (SAMP8 mouse brain tissue) is on record as “decreased”. The “learning and memory functions” value in test [5] (SAMP8 mouse) was “improvement”. In addition, the “nicotine-stimulated release of acetylcholine (ACh)” value in test [6] is listed as “potentiates”.
